Experiments:
[1] = tested on: HCT116; test: Methylene Blue Cell Growth Inhibition Assay, HCT116; assay type: cell-based; settings: Homo sapiens, HCT-116, 72 h, read-out: MEB HCT116 IC50
Protocol: (§1) Normal human foreskin fibroblasts (HFF), human colon (HCT116, RKO), lung (H460, A549) and breast (MCF7) tumor cell lines were cultured in high glucose DMEM (Life Technologies) containing 10% fetal bovine serum (FBS) at 37° C. in a humidified 5% CO2, 95% air incubator. Cells were harvested using trypsin/EDTA, counted using a haemocytometer, and plated in 100 μL of culture media per well, at the following densities, in a 96-well tissue culture plate (Falcon 3075): HFF 5,000 cells/well, HCT116 3,000 cells/well, RKO 2,500 cells/well, H460 2,500 cells/well, A549 5,000 cells/well, MCF7 4,000 cells/well. The next day, compounds were diluted in low glucose DMEM containing 100 μg/mL gentamicin, at twice the final required concentration, from 10 mM stock solutions in DMSO. 100 μL/well of these dilutions were added to the 100 μL of media currently in the assay plates. Medium containing 0.6% DMSO was added to control wells. The final concentration of DMSO in all wells was 0.3%. Cells were incubated at 37° C., 5% CO2 for 72 h. Medium was removed by aspiration. Cell biomass was estimated by staining cells with 80 μL per well methylene blue (Sigma M9140, 0.5% in 50:50 ethanol:water), and incubation at room temperature for 30-60 min. Stain was removed by aspiration and the plates rinsed by immersion in water, then air-dried. To release stain from the cells, 100 μL of solubilization solution was added (1% N-lauroyl sarcosine, Sodium salt, Sigma L5125, in PBS), and plates were shaken gently for about 30 min. Optical density at 620 nm was measured on a microplate reader. Percent inhibition of cell growth was calculated relative to vehicle treated control wells. Concentration of compound that inhibits 50% of cell growth (IC50) was interpolated using nonlinear regression (Levenberg-Marquardt) and the equation, y=Vmax*(1−(x/(K+x)))+Y2, where “K” was equal to the IC50.

[2] = tested on: H460; test: Methylene Blue Cell Growth Inhibition Assay, H460; assay type: cell-based; settings: Homo sapiens, NCI-H460, 72 h, read-out: MEB H460 IC50
Protocol: as §1

[3] = tested on: A549; test: Methylene Blue Cell Growth Inhibition Assay, A549; assay type: cell-based; settings: Homo sapiens, 72 h, read-out: MEB A549 IC50
Protocol: as §1

[4] = tested on: RKO; test: Methylene Blue Cell Growth Inhibition Assay, RKO; assay type: cell-based; settings: Homo sapiens, 72 h, read-out: MEB RKO IC50
Protocol: as §1

[5] = tested on: MX-1; test: Methylene Blue Cell Growth Inhibition Assay, MX-1; assay type: cell-based; settings: Homo sapiens, MX1, 72 h, read-out: MEB MX-1 IC50
[6] = tested on: Normal human foreskin fibroblasts (HFF); test: Methylene Blue Cell Growth Inhibition Assay, HFF; assay type: cell-based; settings: Fibroblast, 72 h, read-out: MEB HFF IC50
Protocol: as §1

[7] = tested on: HCT-116; test: Cell-Titer Glo Cell Growth Inhibition Assay, HCT116; assay type: cell-based; settings: Homo sapiens, CellTiter-Glo, 72 h, read-out: CTG HCT116 IC50
Protocol: A549-L (human lung), BT474 (human breast), Colo 205 (human colon), H1299 (human lung), Hela (human cervix), HCT-116 (human colon), HN5 (human head and neck), HT29 (human colon), LNCap (human prostate), MCF7 (human breast), MDA-MB468 (human breast), MX-1 (human breast), RPMI 8226 (human peripheral blood), SKOV3 (human ovary) and P388 (murine leukemia) cell lines were cultured in RPMI1640 containing 10% fetal bovine serum at 37° C. in a 5% CO2 incubator. Cell lines were split into T75 flasks (Falcon #353136) two to three days prior to assay set up at density which yields approximately 70-80% confluency at time of harvest for assay. Cells were harvested using 0.25% trypsin with EDTA (Glibco/Invitrogen #25200-056), Cell counts were performed on cell suspensions using Trypan Blue exclusion staining, cells were then plated in 105 uL of culture media per well at the following densities in 96 well Costar #3916 black flat bottom plates: All human cell lines were plated at 500 cells/well. P388 were plated at 250 cells/well. All plates were placed at 5% CO2 37° C. overnight and then test compounds were added the following day. One plate of each cell type is treated with CellTiter-Glo (Promega #G7573) for a day 0 proliferation measurement and read as described below. The test compounds are prepared in clear U bottom polypropylene 96 well plates (Falcon #35-1190 with consecutive two fold dilutions. 9 uL of these dilutions was added into each well of the cell plates. The final concentration of DMSO in all wells is 0.15%. Cells were incubated at 37° C., 5% CO2 for 72 h. Following 72 h of incubation with compounds each plate was developed and read. CellTiter-Glo reagent was added to assay plates using a volume equivalent to the cell culture volume in the wells. Plates were shaken for approximately two minutes and incubated at room temperature for approximately 15 min and the chemiluminescent signal is read on the Victor V or Envison 2100 reader. […] Concentration of compound that inhibited 50% of cell growth (IC50) was analysis by 4 or 6 parameter fit of data using XLfit, value of no cell addition was subtracted from all samples for background.

[8] = Intravenous pharmacokinetics in CD-1 mouse; assay type: in vivo; settings: plasma, iv bolus, male CD-1 mouse, dose 1.9-7.4 mg/kg per compound (Table 3)
Protocol: Preliminary investigation of the intravenous pharmacokinetics of compounds of invention were carried out in fed conscious CD-1 mouse. Compounds were formulated as 1-10 mg/kg, 5 mL/kg, 1-2 mg/mL solution (Table 3). Twenty one male mice (n=3 mice per time point) (˜30 g) received dose solution by bolus injection in the tail vein. The formulation for iv were either 20% beta cyclodextrin in saline pH 3.5-6 or PEG400:ethanol:saline (50:15:35 v/v). Blood samples (˜0.4 mL) were collected terminally by cardiac puncture following anesthetization in a CO2 chamber at 2, 15, 30, 60 min, 2, 4, and 6 h following iv administration. Blood samples were collected into tubes containing heparin and placed on crushed ice promptly after collection. Plasma was collected by centrifugation, frozen and stored at about −80° C. prior to analysis. Blood or plasma concentrations were determined by LC/MS/MS equipped with an electrospray ion source and using calibration curves for the appropriate matrix. The lower level of quantitation (LLQ) was 10 ng/mL. Blood or plasma concentration-time data were analyzed by non-compartmental methods using the computer program WinNonlin Professional (version 4.1). Area under the blood or plasma concentration-time curve (AUC) was calculated using the linear trapezoidal rule for each incremental trapezoid up to Cmax, and the log trapezoidal rule for each trapezoid thereafter. The terminal elimination rate constant (λz) was derived from the log-linear disposition phase of the concentration-time curve using least-squares regression analysis with visual inspection of the data to determine the appropriate number of terminal data points for regression analysis.
Following iv administration, the total body clearance (CL) was estimated. CL was calculated by dividing the dose by AUC(0−t). The clearance values were assigned as follows. Low <30 mL/min/kg, moderate 30-70 mL/min/kg, high >70 mL/min/kg. The assignment was based on hepatic blood flow i.e. hepatic blood flow of 0-30% low, 30-70% moderate and 70-100% high. The hepatic blood flow in mouse is ˜100 mL/min/kg.

[9] = tested on: MCF7; test: Methylene Blue Cell Growth Inhibition Assay, MCF7; assay type: cell-based; settings: Homo sapiens, 72 h, read-out: MEB MCF7 IC50
Protocol: as §1

[10] = target: T1, PLK1 kinase domain (Homo sapiens, UniProt P53350); test: Assay for Inhibition of PLK1 (33P SPA kinase assay); assay type: biochemical; settings: 2 nM PLK1 kinase domain, 1 μM ATP; read-out: PLK1 pIC50 (converted)
T1 construct: made in house; host or cells: baculovirus infected T. ni cells
T1 sequence (P53350 21-346): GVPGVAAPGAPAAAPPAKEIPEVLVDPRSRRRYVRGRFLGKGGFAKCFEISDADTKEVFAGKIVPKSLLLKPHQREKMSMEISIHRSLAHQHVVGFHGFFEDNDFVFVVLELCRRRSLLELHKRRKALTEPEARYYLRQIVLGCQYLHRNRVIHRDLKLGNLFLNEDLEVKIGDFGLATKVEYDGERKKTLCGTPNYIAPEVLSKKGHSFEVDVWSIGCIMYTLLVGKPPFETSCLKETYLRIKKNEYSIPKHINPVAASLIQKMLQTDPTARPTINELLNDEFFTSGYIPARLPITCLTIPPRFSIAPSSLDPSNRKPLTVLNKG
Protocol: All procedures were performed at 4° C. Cells were lysed in 50 mM HEPES, 200 mM NaCl, 50 mM imidazole, 5% glycerol; pH 7.5. The homogenate was centrifuged at 14K rpm in a SLA-1500 rotor for 1 h and the supernatant filtered through a 1.2 micron filter. The supernatant was loaded onto a Nickel chelating Sepharose (Amersham Pharmacia) column and washed with lysis buffer. Protein was eluted using 20%, 30% and 100% buffer B steps where buffer B is 50 mM HEPES, 200 mM NaCl, 300 mM imidazole, 5% glycerol; pH 7.5. Fractions containing PLK were determined by SDS-PAGE. Fractions containing PLK were diluted five-fold with 50 mM HEPES, 1 mM DTT, 5% glycerol; pH 7.5, then loaded on an SP Sepharose (Amersham Pharmacia) column. After washing the column with 50 mM HEPES, 1 mM DTT, 5% glycerol; pH 7.5, PLK was step eluted with 50 mM HEPES, 1 mM DTT, 500 mM NaCl; 5% glycerol; pH 7.5. PLK was concentrated using a 10 kDa molecular weight cutoff membrane and then loaded onto a Superdex 200 gel filtration (Amersham Pharmacia) column equilibrated in 25 mM HEPES, 1 mM DTT, 500 mM NaCl, 5% glycerol; pH 7.5. Fractions containing PLK were determined by SDS-PAGE. PLK was pooled, aliquoted and stored at −80° C. Samples were quality controlled using mass spectrometry, N-terminal sequencing and amino acid analysis.
B. Enzyme activity +/− inhibitors was determined as follows:
All measurements were obtained under conditions where signal production increased linearly with time and enzyme. Test compounds were added to white 384-well assay plates (0.1 μL for 10 μL and some 20 μl assays, 1 μL for some 20 μL assays) at variable known concentrations in 100% DMSO. DMSO (1-5% final, as appropriate) and EDTA (65 mM in reaction) were used as controls.
Reaction Mix (10 or 20 μL) was quickly added to each well immediately following addition of enzyme via automated liquid handlers and incubated 1-1.5 h at 22° C. The 20 μL enzymatic reactions were stopped with 50 μL of stop mix (50 mM EDTA, 4.0 mg/mL Streptavidin SPA beads in Standard Dulbecco's PBS (without Mg^2+ and Ca^2+), 50 μM ATP) per well. The 10 μL reactions were stopped with 10 μL of stop mix (50 mM EDTA, 3.0 mg/mL Streptavidin-coupled SPA Imaging Beads (“LeadSeeker”) in Standard Dulbecco's PBS (without Mg^2+ and Ca^2+), 50 μM ATP) per well. Plates were sealed with clear plastic seals, spun at 500×g for 1 min or settled overnight, and counted in Packard TopCount for 30 seconds/well (regular SPA) or imaged using a Viewlux imager (LeadSeeker SPA). Signal above background (EDTA controls) was converted to percent inhibition relative to that obtained in control (DMSO-only) wells.

SMILES | IC50 [1] | IC50 [2] | IC50 [3] | IC50 [4] | IC50 [5] | IC50 [6] | IC50 [7] | AUC(0-t) [8] | clearance ([8]; read-out: Plasma CL) | IC50 [9] | IC50 [10]
C[C@@H](Oc1cc(-n2cnc3cc(-c4cn[nH]c4)ccc32)sc1C(N)=O)c1ccccc1C(F)(F)F [Example 5, 5-[5-(1H-Pyrazol-4-yl)-1H-benzimidazol-1-yl]-3-({(1R)-1-[2-(trifluoromethyl)phenyl]ethyl}oxy)-2-thiophenecarboxamide] | < 0.1 µM | < 0.1 µM | < 0.1 µM | < 0.1 µM | < 0.1 µM | 0.1 to 1 µM | < 0.1 µM | 1370 ng·h/mL | 23.1 mL/min/kg |  | 
COc1cc2ncn(-c3cc(OC(C)c4ccccc4Cl)c(C(N)=O)s3)c2cc1OC (stereo not drawn) [PU4870 Ex 126, reference compound] | < 0.1 µM | < 0.1 µM | < 0.1 µM | < 0.1 µM |  | 0.1 to 1 µM |  |  |  | > 1 µM | 
COc1cc2ncn(-c3cc(OC(C)c4ccccc4C(F)(F)F)c(C(N)=O)s3)c2cc1OC (stereo not drawn) [PU4870 Ex 127, reference compound] |  | < 0.1 µM | < 0.1 µM | < 0.1 µM |  | > 1 µM | 0.1 to 1 µM |  |  | 0.1 to 1 µM | < 0.01 µM
COc1cc2c(cc1OCCCN1CCCC1=O)ncn2-c1cc(OCc2ccccc2C(F)(F)F)c(C(N)=O)s1 [PU4870 Ex 134, reference compound] | > 1 µM | > 1 µM | > 1 µM | > 1 µM |  | > 1 µM | > 1 µM |  |  | > 1 µM | 0.01 to 1 µM
NC(=O)c1sc(-n2cnc3cc(C(=O)NCCN4CCNC4=O)ccc32)cc1OCc1ccccc1C(F)(F)F [PU4870 Ex 156, reference compound] | > 1 µM | > 1 µM |  | > 1 µM |  | > 1 µM |  |  |  | > 1 µM | 0.01 to 1 µM

Reference: US20080214563A1, “Benzimidazole Thiophene Compounds As Plk Modulators” (priority 2005, published 2008)
